# Test results from patent EP4385495A1, “NANOSYSTEMS FOR THE ENCAPSULATION OF THERAPEUTIC AGENTS” (National Technical University of Athens, priority 2022, dated 2024).
# Legend:
# IL-6 in RAW264.7 cells = assay: IL-6 ELISA in supernatants of LPS-stimulated RAW264.7 cells; assay type: cell-based, mouse; settings: 48h after dilution of nanosystems
# Procedure: The assay was carried using the MOUSE IL-6 ELISA KIT by ORIGENE_(CATALOG No. EA100128), which was based on the evaluation on Microwell Plates coated with antibody to mouse IL-6. The general protocol provided by the supplier for the evaluation of the samples as well as the development of the standard curve of IL-6 was followed. All reagents and working standards were prepared as directed in the instruction form and determined the number of microwell strips required to test the desired number of samples plus appropriate number of wells needed for running blanks and standards. Then 100µL of Standard, control, or sample, were added per well and the plate was cover with the adhesive strip provided and incubated for 1.5 hours at 37°C.
# Afterwards, each well was aspirated and washed, and the process was repeated three times for a total of four washes by filling each well with Wash Buffer. […]
# After incubation washing was carried out again, followed by the addition of the working solution of Streptavidin-HRP to each well. […] Finally, the plate was gently tapped to ensure thorough mixing and determine the optical density (OD) of each well immediately, using a microplate reader set to 450 nm (optionally 630nm as the reference wavelength;610-650nm is acceptable).
# The OD measured for all samples is reflected on the IL-6 standard curve which was developed following the same steps. […] This quantitative assay is based on the sandwich principal as previously described, utilizing the cell culture supernatants for the evaluation of IL-6 protein presence in LPS-treated cells in the presence of the evaluated samples.
# For this protocol, RAW264.7 cells were treated with LPS prior to the measurement to stimulate IL-6 production and results are reported as pg/ml of IL-6 corresponding to the standard curve of IL-6 developed ([…]). […] Table 3: Anti-inflammatory potential of the samples expressed as IL-6 presence in LPS-stimulated RAW264.7 cells supernatants.
# CCK-8 viability assay = assay type: cell-based; settings: human, primary human chondrocytes; read-out: Mean % relative viability
# Procedure: b) The viability of human primary chondrocytes was evaluated following incubation with increasing concentrations of either the pure Naringin (S1) or the nanosystems (Samples S2 and S3) at 2-10-50µM of encapsulated Naringin (1:5 serial dilutions) for 72h (higher concentrations were not used because the nanosystems become insoluble and aggregates sediment on the cell monolayer). For S2 this corresponded to 6,4 µg/ml (for 2 µM of Naringin), 32 µg/ml (for 10 µM of Naringin) and 158 µg/ml (for 50 µM of Naringin) respectively, of total NP concentration. For S3 (CS[PLA[NAR]]) the total NP concentrations to provide the same µM of encapsulated Naringin were 14,4 / 72 / 360 µg/m). As control for the nanosystems, a blank PLA nanoparticle preparation coated with chitosan (S4) was used, at the same µg/ml polymer concentration like the ones used to achieve the 2-10-50µM range for Naringin (the difference being that the blank contains no Naringin). Finally, the blank S4 was used at the 14,4/72/360 µg/ml concentration range (1:5 serial dilutions). Following incubation, the CCK-8 viability kit was used according to manufacturer's instructions (Sigma, 96992-500TESTS-F). Macroscopical and microscopical observation confirmed the proper complete solubility and dispersion of the Nanoparticles. Importantly, healthy cell morphology was observed (spindle-like attached cells with several processes) with concomitant absence of undissolved material.
# Table 5. Effect of the natural products and the nanosystems on the relative cell viability of primary human chondrocytes. Measurements obtained using the CCK-8 viability kit. Values normalized to positive control (PC; set to 100; arbitrary unit). Samples' coding: S1= pure Naringin, S2=Naringin encapsulated in PLA nanoparticles [PLA[NAR]], S3=Naringin encapsulated in PLA nanoparticles coated with chitosan CS[PLA[NAR]], and S4=Blank PLA nanoparticles coated with chitosan, CS(PLA[---]].
# [1] = test system: experimental animal model of osteoarthritis (OA); assay: Knee diameter (digital caliper) and gross observations in collagenase-induced osteoarthritis rat model; assay type: in vivo, Wistar rats; settings: for Right knee diameter: collagenase-injected knee; for Left knee diameter: untreated control knee
# Procedure: In order to understand the anti-inflammatory and antioxidant potential of the nanoparticles of the invention in vivo an experimental animal model of osteoarthritis (OA) was established. The OA lesions were caused by matrix degradation of articular cartilage using enzymatic means, such as collagenase type-II. Following the induction of osteoarthritis, the studied nanoparticles were administered for 8 weeks in which period the morphological and behavioral changes were measured and finally histological analysis of the articular cartilage samples concluded the in vivo study.
# Healthy adult male Wistar rats (150-200 g) were used for the study, with water and food ad libitum, at a constant temperature of 22°C and controlled lighting (12 h light/12 h dark cycle).
# As far as the dispersion procedure of the injectables is concerned, all the natural compounds were dissolved in saline solution, whereas the studied nanoparticles were mechanically grinded in a mortar and pestle set with saline solution and Tween 20 (2% w/v) and heated at 36 °C before each treatment. There were six treatments administered every 10 days. At the end of the experiment rats were euthanized and both knees were collected for histological analysis.
# Rats were anesthetized with chloral hydrate. The right knee joints of Group I were injected with normal saline solution and served as a control. Animals from the groups II, III, IV, V, VI, VII were injected with collagenase type II (Clostridium histolyticum). Collagenase (125 collagen digestion unit/mg) was dissolved in saline, and it was injected intra-articularly into the right knee joint twice on days 1 and 4 of the experiment (Al-Saffar, F., H. Ganabadi and S. Fakurazi. Collagenase and sodium iodoacetate-induced experimental osteoarthritis model in Sprague dawley rats. Asian J. Sci. Res. 2: 1-13, 2009). The left knees of all animals were left untreated as a control.
# Changes in body weight and knee diameter were measured on the 1st, 4th,11th,21st,31st,41st,51st, 61st, 71st day before every injection. Knee diameter was measured using a digital caliper. […] A change in body weight is also measured as one of the parameters to assess the course of the disease in the OA animal models.
# [2] = 40 days (half of experimental protocol)
# [3] = 70 days (end of experimental protocol)
structure (smiles),measurement,setting,value
"C[C@@H]1O[C@@H](O[C@H]2[C@H](Oc3cc(O)c4c(c3)O[C@H](c3ccc(O)cc3)CC4=O)O[C@H](CO)[C@@H](O)[C@@H]2O)[C@H](O)[C@H](O)[C@H]1O [S1 [NAR], Naringin]",IL-6,IL-6 in RAW264.7 cells; 25 µM,"720,000 pg/ml"
same,IL-6,IL-6 in RAW264.7 cells; 50 µM,"700,000 pg/ml"
same,IL-6,IL-6 in RAW264.7 cells; 100 µM,"455,000 pg/ml"
same,"viability at 72 h, 10 µM",CCK-8 viability assay,136%
same,"viability at 72 h, 50 µM",CCK-8 viability assay,130%
same,"viability at 72 h, 200 µM",CCK-8 viability assay,111%
same,% Changes in Left knee diameter,[1]; 11 days (before treatment),"0,26%"
same,% Changes in Right knee diameter,[1]; 11 days (before treatment),"4,14%"
same,% Changes in Left knee diameter,[1]; [2],"0,79%"
same,% Changes in Right knee diameter,[1]; [2],"3,25%"
same,% Changes in Left knee diameter,[1]; [3],"0,84%"
same,% Changes in Right knee diameter,[1]; [3],"2,35%"
same,Right knee diameter,[1]; 1st injection CO/saline (before treatment),"0,85 cm"
same,Right knee diameter,"[1]; 1st treatment, 10 mg/kg (S1, ibuprofen i.p.; nanoparticles i.a.)","0,8852 cm"
same,Right knee diameter,[1]; 2nd injection CO/saline (before treatment),"0,882 cm"
same,Right knee diameter,[1]; 3rd treatment,"0,9 cm"
same,Right knee diameter,[1]; 4th treatment,"0,8776 cm"
same,Right knee diameter,[1]; 5th treatment,"0,8712 cm"
same,Right knee diameter,[1]; 6th treatment,"0,87 cm"
same,Right knee diameter,[1]; final,"0,87 cm"
same,Left knee diameter,[1]; 1st injection CO/saline,"0,8572 cm"
same,Left knee diameter,[1]; 1st treatment,"0,8594 cm"
same,Left knee diameter,[1]; 2nd injection CO/saline,"0,858 cm"
same,Left knee diameter,[1]; 4th treatment,"0,864 cm"
same,Left knee diameter,[1]; final,"0,8644 cm"
